Data published in patent US8901176B2, “Methods for treatment of Parkinson's disease” (Newron Pharmaceuticals, S.P.A., priority 2003, dated 2014).

Experiments:
[1] = test system: patients affected by idiopathic early Parkinson's disease; test: Phase II dose finding, double-blind, placebo controlled 12-week study: safety (adverse events, vital signs, ECG, laboratory); settings: for related adverse events: placebo 25.0%; for percentage of patients with adverse events: placebo 50.0%
Procedure: Safety was monitored by adverse events, vital signs, 12-lead ECG and clinical laboratory variables.
Patients were assigned to the study treatment group as randomized.
The analyses based on the safety cohort were performed for the safety parameters, demographic data and the most important baseline characteristics which were defined in the analysis plan.
Incidences of adverse events were calculated overall, by body system and by preferred term. Vital sign measurements at baseline (Visit 2) were compared to further visits using the Kruskal-Wallis test. All other safety variables were analysed descriptively.

[2] = test system: patients affected by idiopathic early Parkinson's disease; test: Phase II dose finding, double-blind, placebo controlled 12-week study: efficacy (UPDRS section III responder rate, CGI); assay type: in vivo, human; settings: for Non Responders, % / Responders, % / Responder rate (improvement of at least 30% in UPDRS section III): final visit; for Responder rate at final visit, %: 12 weeks, ITT cohort, versus placebo 21.4%
Excerpt: Mode of administration was oral, once daily; and duration of treatment was 12 weeks. The primary efficacy variable in this study was the proportion of patients considered to have achieved a response defined as an improvement of at least 30% in the unified Parkinson's disease ratings scale (UPDRS) section III score between baseline (Visit 2) and the end of the study (Visit 9 or early study termination).
The intent-to-treat (ITT) cohort was defined as all randomized patients who received at least one dose of study medication and for whom at least one UPDRS section III assessment after treatment was available.
The analysis based on the ITT Cohort was considered a primary analysis and was performed for all parameters except safety parameters.
The per-protocol (PP) cohort was defined as all patients who completed the study without major protocol violations. Minor violations not leading to exclusion from the PP cohort were defined during a blind review meeting after data cleaning. Drop-outs due to lack of efficacy and due to adverse events were not excluded from the PP cohort.
The primary efficacy variable was the percentage of patients with an improvement of at least 30% in the UPDRS section III score between baseline (Visit 2) and the end of the study (Visit 9 or early study termination). Comparison between the treatment groups was performed in the ITT analysis cohort (primary analysis) using a logistic regression model taking into account UPDRS section III score at baseline, the patient's treatment history (de-novo, single dopamine agonist alone, single dopamine agonists with a prior Parkinson's disease treatment) and the country.
The percentage of patients with an improvement of at least 30% in the UPDRS section III score at Visits 5 and 7 was analyzed using the same methods as for the primary efficacy variable.

MAO-B = settings: cited from earlier work
healthy volunteers [3] = settings: 71 healthy volunteers; single doses of 10 mg/kg or 7 days of repeated doses of 5 mg/kg/day; cited from earlier work
rodents given MPTP = settings: cited from earlier work
[4] = test system: animal model of wearing off; settings: response diminished after 28 days continuous L-dopa treatment; cited from earlier work
[5] = pre-clinical studies; cited from earlier work
primates = settings: after 12 week daily administration; cited from earlier work
healthy volunteers [6] = settings: in vivo; cited from earlier work
[7] = De Novo subgroup (N = 66), Safinamide 0.5 mg/kg
[8] = De Novo subgroup (N = 66), Safinamide 1.0 mg/kg

Question: For `C[C@H](NCc1ccc(OCc2cccc(F)c2)cc1)C(N)=O` [Safinamide, (+)-(S)-2-[[p-[(m-fluorobenzyl)oxy]-benzyl]amino]propionamide], which “overall safety (other vital signs, ECG recordings, laboratory parameters)” value ([1]; 0.5 and 1.0 mg/kg, 12 weeks) is on record?
Answer: Its value is “no safety concerns were raised”.

Question: And the “mean heart rate, change from baseline to the final visit” value ([1]; other treatment groups (safinamide 0.5 mg/kg, placebo))?
Answer: The value was “a decrease was observed”.

Question: What about the “tremor aggravated (nervous system disorders, most frequent adverse event)” value ([1]; safinamide 0.5 mg/kg group) of the same compound?
Answer: Its value is 3.6 % of patients.

Question: What about the “patients who experienced serious adverse events” value ([1]; safinamide 0.5 mg/kg group (atrial fibrillation, pregnancy), unlikely related or not related) of the same compound?
Answer: The value was “Two”.

Question: What about the related adverse events ([1]; safinamide 0.5 mg/kg group) of the same compound?
Answer: The related adverse events was 12.5 % of patients.

Question: What about the “percentage of patients with adverse events” value ([1]; safinamide 0.5 mg/kg group) of the same compound?
Answer: Its value is 37.5 % of patients.

Question: And the “nausea (gastrointestinal system disorders, most frequent adverse event)” value ([1]; safinamide 1.0 mg/kg group)?
Answer: The value was 3.6 % of patients.

Question: What about the “patients who experienced serious adverse events” value ([1]; safinamide 1.0 mg/kg group (myasthenia gravis), not related) of the same compound?
Answer: Its value is “one”.

Question: What about the “mean heart rate, change from baseline to the final visit” value ([1]; safinamide 1.0 mg/kg group, p=0.037, Kruskal-Wallis test) of the same compound?
Answer: The value was “increased”.

Question: And the related adverse events ([1]; safinamide 1.0 mg/kg group)?
Answer: The related adverse events was 10.7 % of patients.

Question: What about the “percentage of patients with adverse events” value ([1]; safinamide 1.0 mg/kg group) of the same compound?
Answer: Its value is 32.1 % of patients.

Question: What about the deaths ([1]; whole study, 0.5 and 1.0 mg/kg groups) of the same compound?
Answer: Its deaths is “No deaths were reported”.

Question: What about the “Non Responders, %” value [2, 7] of the same compound?
Answer: The value was 77.3%.

Question: What about the “Responders, %” value [2, 7] of the same compound?
Answer: The value was 22.7%.

Question: And the “Non Responders, %” value [2, 8]?
Answer: Its value is 77.3%.

Question: And the “Responders, %” value [2, 8]?
Answer: Its value is 22.7%.

Question: And the “Responder rate at final visit, %” value ([2]; Safinamide 0.5 mg/kg oral once daily, group N = 55, p 0.132)?
Answer: The value was 30.9%.

Question: What about the “Responder rate at final visit, %” value ([2]; Safinamide 1.0 mg/kg oral once daily, group N = 56, p 0.016) of the same compound?
Answer: Its value is 37.5%.

Question: What about the “Non Responders, %” value ([2]; Single DA subgroup (N = 101), Safinamide 0.5 mg/kg add-on) of the same compound?
Answer: Its value is 63.6%.

Question: What about the “Non Responders, %” value ([2]; Single DA subgroup (N = 101), Safinamide 1.0 mg/kg add-on) of the same compound?
Answer: The value was 52.9%.

Question: And the “Responders, %” value ([2]; Single DA subgroup (N = 101; stable dopamine agonist treatment), Safinamide 0.5 mg/kg add-on, placebo 20.6%)?
Answer: The value was 36.4%.

Question: What about the “Responders, %” value ([2]; Single DA subgroup (N = 101; stable dopamine agonist treatment), Safinamide 1.0 mg/kg add-on, placebo 20.6%, P = 0.024) of the same compound?
Answer: Its value is 47.1%.

Question: And the “Responder rate (improvement of at least 30% in UPDRS section III)” value ([2]; patients who received a single dopamine agonist alone, 0.5 mg safinamide, placebo 25.0%)?
Answer: Its value is 33.3%.

Question: And the “Responder rate (improvement of at least 30% in UPDRS section III)” value ([2]; patients who received a single dopamine agonist alone, 1.0 mg safinamide, placebo 25.0%)?
Answer: Its value is 50.0%.

Question: And the “Responder rate (improvement of at least 30% in UPDRS section III)” value ([2]; patients with a dopamine agonist with a prior Parkinson's disease treatment, 0.5 mg safinamide, placebo 14.3%)?
Answer: Its value is 40.0%.

Question: What about the “Responder rate (improvement of at least 30% in UPDRS section III)” value ([2]; patients with a dopamine agonist with a prior Parkinson's disease treatment, 1.0 mg safinamide, placebo 14.3%) of the same compound?
Answer: Its value is 43.8%.

Question: And the “changes in CGI part I between baseline (Visit 2) and Visit 6” value ([2]; safinamide 0.5 mg/kg group versus other groups, p=0.049, Fisher's exact test)?
Answer: Its value is “better outcome”.

Question: What about the “average improvement of patients” value ([2]; safinamide added to a stabilized dose of a variety of dopamine agonists) of the same compound?
Answer: Its value is 27.8%.

Question: What about the “average improvement of patients” value ([2]; safinamide administered alone) of the same compound?
Answer: The value was 6.9%.

Question: And the “inhibition of MAO-B activity” value (MAO-B)?
Answer: The value was “potent, reversible inhibitor”.

Question: And the side effects (healthy volunteers [3])?
Answer: The side effects was “did not produce any clinically relevant side effect”.

Question: And the nigral neuronal death (rodents given MPTP; given 4 h after the toxin (MPTP) administration)?
Answer: Its nigral neuronal death is “capable of preventing nigral neuronal death”.

Question: And the neostriatal dopamine depletion (rodents given MPTP; given prior to the administration of MPTP)?
Answer: Its neostriatal dopamine depletion is “prevented neostriatal dopamine depletion”.

Question: And the “motor effect in response to L-dopa” value [4]?
Answer: Its value is “restores the efficacy and duration of the motor effect”.

Question: And the anticonvulsant activity [5]?
Answer: The anticonvulsant activity was “broad spectrum of anticonvulsant activity”.

Question: What about the neostriatal dopamine (primates) of the same compound?
Answer: Its neostriatal dopamine is “significant increase of neostriatal dopamine with increased turnover”.

Question: What about the “amount of i.v. tyramine to raise BP by 30 mm Hg, compared to placebo (cheese effect)” value (healthy volunteers [6]) of the same compound?
Answer: Its value is “equal or greater amount of i.v. tyramine was required”.
